From US20070037800A1, “Method of treating neurological disorders using clotrimazole and derivatives thereof” (EnVivo Pharmaceuticals, Inc., priority 2005, published 2007)

Columns and labels:
[1] = system: Kainic acid lesion in C57BL/6 mice; assay: Mouse model of acute neurodegeneration: kainic acid lesion volume; type: in vivo; conditions: KA 1.0 nmol i.s.; clotrimazole 2 mg/kg i.p. twice daily; vs KA+vehicle; P=0.010 (t test of difference in log[size]); two days after KA
Procedure: To test the hypothesis that clotrimazole may be neuroprotective against KA induced excitatory damage in the brain, clotrimazole was compared to benzamide as a positive control in the mouse model. Three study groups (n=8-9) were tested: (1) C57BL/6 treated with KA 1.0 nmol (i.s.) left hemisphere+vehicle (i.p.); (2) KA 1.0 nmol i.s. left hemisphere+clotrimazole (2mg/kg) i.p. twice daily for duration of the study (including a single dose 1 hour before KA); and (3) KA 1.0 nmol i.s. left hemisphere+benzamide (160 mg/kg, i.p. 30 min before injection and 3.5 hrs after). Kainic Acid (K0250), clotrimazole (C6019) and Benzamide (150762) were purchased from Sigma and prepared as followed: Kainic Acid was dissolved in phosphate buffered saline (1×PBS, pH 7.4), pH to 7.4 using NaOH. […]
Two days after injection of KA the animals were anesthetized and transcardially perfused with ice cold phosphate buffered saline (0.1 M PBS, pH 7.4) containing 10% sucrose and then perfused with ice-cold 4% paraformaldehyde in 0.1M PBS, pH 7.4. […] The area of the lesion, indicated by the lack of staining when compared to the contralateral (intact) striatum/cortex, was measured in each series of sections (n=25-30) blindly by means of an image analysis program and the lesion volume was calculated by a stereological method (Cavalieri's estimator of volume corrected for over projection).

R6/2 transgenic mice = assay: Rotarod test in R6/2 transgenic mouse model of Huntington's disease; type: in vivo
Procedure: The rotarod test and body weight measurements were used to assess the therapeutic effects of clotrimazole in R6/2 transgenic mice. R6/2 and WT male mice at 4 weeks of age were trained 3 consecutive days on the accelerating rotarod. Each training day consisted of four sessions. After the training was complete, the animals were reassigned to new groups to create statistically homogenous cohorts. At 5 weeks of age, animals (n=10 per group) were dosed twice daily, intraperitoneally (IP) with clotrimazole at either 2 mg/kg or 10 mg/kg (equal to 4 and 20 mg/kg per day). Rotarod testing was performed at 6, 8, 10, and 12 weeks of age as described above. Body weights were collected every week.

R6/2 mice [2] = assay: Cage climbing and rearing in R6/2 mice; type: in vivo, mouse; conditions: for Cage climbing: 12 weeks
From the text: Cage climbing analysis involves filming a 10cm tall cylindrical cage into which an R6/2 (+/−drug) or WT mouse is placed. The mouse is allowed to move naturally ad libetum for a five minute session within the confines of the cage, while events such as rearing occurrences, climbing time and latency to climb are documented. Cage climbing and rearing data were collected at 12 weeks in this study.

R6/2 mice [3] = assay: Gait analysis (DigiGait) in R6/2 mice; type: in vivo, mouse
From the text: Gait analysis was also collected at 12 weeks, which is a time when clear differences have previously been described between R6/2 and wild-type. In this analysis, the DigiGait™ Imaging System, which is non-invasive, robust, and quantitative—in that it generates numerous indices of gait dynamics and posture—was used. The system simplifies kinematic observations and analyses by imaging the animals from below a transparent treadmill. Software, including artificial intelligence algorithms, quantifies the characteristics of gait, including step sequence patterns, stride length, cadence, and paw placement. The output also includes swing and stance durations, as well as braking and propulsion durations. Indices computed by DigiGait convey information about sensory and motor inputs modulating gait and gait variability.

microglia activation = conditions: has been shown; no source given; cited from earlier work
[4] = cited from earlier work
[5] = 4 and 20 mg/kg dosing, preliminary data

## Clc1ccccc1C(c1ccccc1)(c1ccccc1)n1ccnc1 [clotrimazole]
[1]
  Lesion volume: statistically significant improvement
R6/2 transgenic mice; 20 mg/kg/day IP-BID, any time point tested (6, 8, 10, 12 weeks of age)
  Rotarod effect: did not have a statistically significant effect
R6/2 transgenic mice; at the higher dose as printed, P=0.01 (Wilcoxon test)
  Rotarod effect vs vehicle-treated R6/2 animals: statistically-significant effect
R6/2 transgenic mice; low dose of 4 mg/kg/day (2 mg/kg IP twice daily), preliminary data
  Behavior in vivo (rotarod): positively affects
R6/2 mice [2]; 4 mg/kg (low dose)
  Cage climbing: Statistically significant improvement
R6/2 mice [2]; 20 mg/kg (high dose)
  Cage climbing: Statistically significant improvement
R6/2 mice [2]; [5]
  Motor performance by cage climbing and rearing: significantly improved the motor performance
R6/2 mice [3]; [5]
  Motor performance by gait analysis: significantly improved the motor performance
R6/2 mice [3]; gait analysis at 12 weeks
  Swing ratio score: significantly improved
Microglia activation
  Inhibition of microglia activation: potent inhibitor
[4]
  Known side effects in humans: lethargy, apathy, and weakness
